Source: ChEMBL document CHEMBL1201862, “PubChem BioAssay data set” (2004)
Values joined by “and” are separate entries in the source; they are usually repeats but may differ in a detail not shown here. Equal values may be shown once. Blank lines part the entries; values can stand above or below the compound they belong to. Active and inactive are the calls of the source. Cut-off read from the data, not from the text of the source, for most assays here: actives have a measured EC50 and inactives only a lower limit.

How the values were obtained:
[1] = inhibitors of intracellular T. cruzi replication, confirmation, NIH3T3 host cells, beta-gal luminescence (AID 2044); type: functional, cell-based;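 note: intracellular parasites grown in NIH/3T3 mouse fibroblasts as host cells; luminescent beta-galactosidase reporter signal from transgenic T. cruzi replicating inside host cells; inhibitors lower the luminescence signal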
[2] = cytotoxicity toward NIH3T3 fibroblasts, dose response, counter-screen, cell-based, ATP luminescence, mouse fibroblasts (AID 2010); type: functional;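 note: cells exposed to compound for about 90 hours before reading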
[3] = biological target: T1, Heat shock factor protein 1 (Mus musculus, UniProt P38532); test: HSF1 potentiators in luciferase reporter cells, confirmation, cell-based, NIH3T3, luminescence, dose retest (AID 435004); type: functional;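 note: stress induced by proteasome inhibitor MG132 added 30 min after compound; luciferase reporter driven by HSF1 response element in NIH3T3 cells; actives raise luminescence as potentiators of the MG132 stress response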
T1 sequence (P38532 whole entry): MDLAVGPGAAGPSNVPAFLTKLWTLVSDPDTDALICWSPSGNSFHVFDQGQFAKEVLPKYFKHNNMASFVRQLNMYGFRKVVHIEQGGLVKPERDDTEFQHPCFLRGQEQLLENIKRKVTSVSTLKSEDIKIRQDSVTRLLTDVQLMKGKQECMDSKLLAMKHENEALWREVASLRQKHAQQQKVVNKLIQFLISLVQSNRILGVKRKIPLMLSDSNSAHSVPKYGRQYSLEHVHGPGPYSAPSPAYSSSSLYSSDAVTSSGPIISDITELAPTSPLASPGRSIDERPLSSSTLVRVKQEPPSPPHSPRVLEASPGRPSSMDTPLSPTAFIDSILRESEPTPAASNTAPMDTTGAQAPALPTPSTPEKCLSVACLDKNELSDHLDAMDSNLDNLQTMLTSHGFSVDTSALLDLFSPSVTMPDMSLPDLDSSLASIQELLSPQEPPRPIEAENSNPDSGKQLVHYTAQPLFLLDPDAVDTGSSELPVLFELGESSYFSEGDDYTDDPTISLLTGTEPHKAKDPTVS

Cytochrome P450 3A4 = Cytochrome P450 3A4 (Homo sapiens, UniProt P08684);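 note: CYP3A4 tested as one member of a cytochrome P450 panel screen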
Cytochrome P450 3A4, sequence (P08684 whole entry): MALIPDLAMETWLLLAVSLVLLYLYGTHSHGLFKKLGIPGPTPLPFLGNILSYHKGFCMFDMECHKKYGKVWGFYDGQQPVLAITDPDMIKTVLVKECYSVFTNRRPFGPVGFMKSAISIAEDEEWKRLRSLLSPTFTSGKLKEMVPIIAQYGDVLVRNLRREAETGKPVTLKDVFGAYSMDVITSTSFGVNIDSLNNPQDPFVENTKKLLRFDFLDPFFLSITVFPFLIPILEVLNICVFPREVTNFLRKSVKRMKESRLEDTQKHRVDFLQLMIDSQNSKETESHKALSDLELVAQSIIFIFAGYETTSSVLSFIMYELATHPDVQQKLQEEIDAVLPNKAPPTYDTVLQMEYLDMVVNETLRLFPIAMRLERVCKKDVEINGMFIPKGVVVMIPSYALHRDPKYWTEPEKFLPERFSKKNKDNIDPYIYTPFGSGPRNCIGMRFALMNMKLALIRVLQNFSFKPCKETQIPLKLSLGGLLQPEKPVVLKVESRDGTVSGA

Cytochrome P450 2D6 = Cytochrome P450 2D6 (Homo sapiens, UniProt P10635);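 note: CYP2D6 member of a cytochrome P450 panel assay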
Cytochrome P450 2D6, sequence (P10635 whole entry): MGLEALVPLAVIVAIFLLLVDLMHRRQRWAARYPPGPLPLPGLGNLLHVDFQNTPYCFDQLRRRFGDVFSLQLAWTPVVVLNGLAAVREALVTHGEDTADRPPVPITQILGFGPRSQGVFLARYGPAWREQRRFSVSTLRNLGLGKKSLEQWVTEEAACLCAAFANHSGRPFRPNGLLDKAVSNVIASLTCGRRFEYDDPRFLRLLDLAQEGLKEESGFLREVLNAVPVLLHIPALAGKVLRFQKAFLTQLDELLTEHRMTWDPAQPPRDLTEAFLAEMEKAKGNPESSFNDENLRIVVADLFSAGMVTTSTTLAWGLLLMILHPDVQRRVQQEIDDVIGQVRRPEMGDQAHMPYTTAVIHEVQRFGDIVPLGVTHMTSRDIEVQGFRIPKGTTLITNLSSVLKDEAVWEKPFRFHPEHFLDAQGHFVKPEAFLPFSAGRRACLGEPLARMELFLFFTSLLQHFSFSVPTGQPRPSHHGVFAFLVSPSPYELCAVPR

Cytochrome P450 1A2 = biological target: T2, Cytochrome P450 1A2 (Homo sapiens, UniProt P05177);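 note: PubChem cytochrome P450 panel assay, CYP1A2 panel member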
T2 sequence (P05177 whole entry): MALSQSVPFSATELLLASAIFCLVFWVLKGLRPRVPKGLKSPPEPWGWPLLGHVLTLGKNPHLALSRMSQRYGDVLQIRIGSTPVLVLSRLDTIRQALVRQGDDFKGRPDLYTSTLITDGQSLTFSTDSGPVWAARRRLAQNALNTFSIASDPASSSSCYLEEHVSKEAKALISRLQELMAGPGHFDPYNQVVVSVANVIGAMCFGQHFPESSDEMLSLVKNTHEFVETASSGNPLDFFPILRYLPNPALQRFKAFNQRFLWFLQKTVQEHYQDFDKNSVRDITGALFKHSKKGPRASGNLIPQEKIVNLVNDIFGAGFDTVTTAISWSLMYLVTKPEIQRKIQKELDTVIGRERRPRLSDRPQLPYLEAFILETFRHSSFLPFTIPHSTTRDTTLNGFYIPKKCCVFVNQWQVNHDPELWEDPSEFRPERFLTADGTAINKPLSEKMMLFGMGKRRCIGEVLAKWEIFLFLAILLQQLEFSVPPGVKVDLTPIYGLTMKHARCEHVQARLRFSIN

[4] = tested on: Streptococcus sp. 'group A'; test: growth inhibition of control SK(-) GAS strain, dose response, counter-screen for streptokinase expression inhibitor project, luminescence, kanamycin, BacTiterGlo, confirmation (AID 1900); type: functional, organism-based
Streptococcus = test: Group A Streptococcus viability loss, dose response, counter-screen for streptokinase expression inhibitor project, luminescence, BacTiterGlo (AID 1915); type: functional, organism-based;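 note: potency for reduction of bacterial viability or growth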

Compound: CCN1CCN(c2oc(COc3ccc(-c4ccccc4)cc3)nc2C#N)CC1
EC50 [1]: 2.66 µM (active)
EC50 [2]: > 60 µM (not active)

Compound: Cc1ccc2cc(C(c3nnnn3C3CCCC3)N(Cc3ccco3)Cc3cccs3)c(O)nc2c1 (stereo unspecified)
EC50 [1]: 3.2 µM (active)
EC50 [2]: > 60 µM (not active)

Compound: CO[C@@H]1CC=C2CCN3CCC4=C(CC(=O)OC4)[C@]23C1
AC50 (Cytochrome P450 3A4): 39.8 µM (inconclusive)

Compound: CN1CCN(c2ccc(NC(=O)c3ccc4c(c3)nc(O)n4Cc3ccc(F)cc3)cc2)CC1
EC50 [1]: 0.955 µM (active)
EC50 [2]: > 30 µM (not active)

Compound: CCSc1nnc(NC(=O)CSc2nc3c(cc2C#N)CCCC3)s1
AC50 (Cytochrome P450 2D6): 3.55 µM (inconclusive)
AC50 (Cytochrome P450 1A2): 15.8 µM (inconclusive)

Compound: CCOc1ccc(NC(=O)c2ccc(OC)cc2)cc1
AC50 (Cytochrome P450 1A2): 20 µM (inconclusive)

Compound: COc1ccc(S(=O)(=O)N2CCOC23CCN(S(=O)(=O)c2ccc([N+](=O)[O-])cc2)CC3)cc1
EC50 [1]: 2.03 µM (active)
EC50 [2]: > 30 µM (not active)

Compound: CCOC(=O)NC(NC(=O)OCC)C(=O)c1ccc(F)cc1
AC50 (Cytochrome P450 1A2): 10 µM (inconclusive)

Compound: COc1ccc(C(F)(F)F)cc1N/C=C\c1nnnn1-c1ccccc1
AC50 (Cytochrome P450 1A2): 1.41 µM (inconclusive)
AC50 (Cytochrome P450 3A4): 31.6 µM (inconclusive)

Compound: O=C(CSc1nccn(-c2ccc(F)c(F)c2)c1=O)NC1CCCC1
EC50 [3]: > 260 µM (inactive)

Compound: c1ccc(C(c2ccccc2)c2noc(CN3CCC(c4ccncc4)CC3)n2)cc1
EC50 [1]: 0.943 µM (active)
EC50 [2]: > 30 µM (not active)

Compound: C=CCn1c(=O)c2c(nc(Br)n2Cc2ccccc2Cl)n(C)c1=O
AC50 (Cytochrome P450 1A2): 15.8 µM (inconclusive)

Compound: Cc1c(C(=O)NCc2ccc3c(c2)OCO3)oc2ccc(S(=O)(=O)N3CCC(C)CC3)cc12
EC50 [1]: 1.04 µM (active)
EC50 [2]: 50.9 µM (active)

Compound: COc1ccc(CCN=C(NS(=O)(=O)c2ccccc2)c2ccccc2)cc1OC
EC50 [3]: > 260 µM (inactive)

Compound: CCS(=O)(=O)C(=C1NCCO1)S(=O)(=O)CC
EC50 [3]: > 260 µM (inactive)

Compound: COc1ccccc1N1CCN(C(CNS(=O)(=O)c2cc(F)ccc2F)c2cccnc2)CC1 (stereo unspecified)
EC50 [1]: 0.367 µM (active)
EC50 [2]: > 60 µM (not active)

Compound: CN(C)S(=O)(=O)c1ccc(C(=O)Nc2nnc(-c3ccc4c(c3)CCCC4)o2)cc1
EC50 [4]: 0.286 µM (active)
EC50 (Streptococcus): 0.264 µM (active)

Compound: COc1ccc(C(=O)N2CCC3(CC2)CCN(c2cccc(-c4ccccc4)c2)CC3)cc1
AC50 (Cytochrome P450 1A2): 25.1 µM (inconclusive)

Compound: COc1ccc(C(=O)n2nc(C)cc2Nc2ccccc2)cc1
EC50 [3]: 7.2 µM (active)

Compound: NCCNC(=O)c1ncsc1-c1cccc(F)c1
AC50 (Cytochrome P450 3A4): 31.6 µM (inconclusive)

Compound: C[C@](N)(CCP(=O)(O)O)C(=O)O
AC50 (Cytochrome P450 1A2): 39.8 µM (inconclusive)

Compound: CCN(CC)C(=O)c1ccc(C)c(Br)c1
EC50 [3]: > 260 µM (inactive)

Compound: CC(c1nnnn1C(C)(C)C)N(Cc1cccnc1)Cc1ccccc1Cl (stereo unspecified)
EC50 [1]: 0.496 µM (active)
EC50 [2]: > 60 µM (not active)

Compound: Cc1csc(-c2cnn(-c3ccccc3)c2NC(=O)c2cccc(C(F)(F)F)c2)n1
EC50 [3]: > 260 µM (inactive)

Compound: CCCOc1ccc(N2C(=O)CC(N(CCc3ccc(OC)c(OC)c3)C(S)=Nc3ccccc3)C2=O)cc1 (stereo unspecified)
EC50 [1]: 2.1 µM (active)
EC50 [2]: > 30 µM (not active)

Compound: CCCOc1ccc(NC(=O)OC2CCN(C)CC2)cc1
EC50 [1]: 0.442 µM (active)
EC50 [2]: > 60 µM (not active)

Compound: CS(=O)(=O)Nc1cccc(-c2nccc(Nc3ccc(F)cc3)n2)c1
AC50 (Cytochrome P450 2D6): 39.8 µM (inconclusive)

Compound: CCOc1cc(CNc2cccc3ccccc23)cc(Br)c1OCC(=O)NC(C)(C)C
EC50 [1]: 2.31 µM (active)
EC50 [2]: > 30 µM (not active)

Compound: O=C(Nc1nnc(SCc2ccc(Cl)cc2)s1)c1ccco1
AC50 (Cytochrome P450 1A2): 3.16 µM (inconclusive)
AC50 (Cytochrome P450 3A4): 31.6 µM (inconclusive)

Compound: CCCCOc1ccc(/C=C/C(=O)NCCc2nc3ccccc3[nH]2)cc1
AC50 (Cytochrome P450 2D6): 14.1 µM (inconclusive)

Compound: Cc1cc(NC(=O)c2cccs2)n(-c2nc3ccccc3[nH]2)n1
EC50 [1]: 1.95 µM (active)
EC50 [2]: 14.2 µM (active)

Compound: Cc1c(N(C)S(=O)(=O)c2cccc(C(=O)NC(C)C)c2)c(=O)n(-c2ccccc2)n1C
EC50 [3]: > 260 µM (inactive)

Compound: CCN(CCCNC(=O)CNC(=O)c1nn(-c2ccc(OC)cc2OC)c(=O)c2ccccc12)c1cccc(C)c1
EC50 [3]: > 260 µM (inactive)

Compound: COc1cc2c(cc1OC)C(C(=O)N1CCOCC1)C(c1cccs1)N(C)C2=O (stereo unspecified)
AC50 (Cytochrome P450 3A4): 25.1 µM (inconclusive)

Compound: O=[N+]([O-])c1ccc(S(=O)(=O)NCCS(=O)(=O)N2CCN(c3ccccc3)CC2)cc1
EC50 [1]: 0.247 µM (active)
EC50 [2]: > 60 µM (not active)

Compound: N#Cc1ccc(CN2CC3(CCN(C(=O)c4ccncc4)CC3)C2)cc1
AC50 (Cytochrome P450 3A4): 12.6 µM (inconclusive)

Compound: O=C(NNc1c(Cl)cccc1Cl)C1CCC1
EC50 [3]: > 260 µM (inactive)

Compound: CC(=O)Nc1sc2c(c1CN1CCN(C)CC1)CCCC2
AC50 (Cytochrome P450 1A2): 17.8 µM (inconclusive)

Compound: Cc1cnn(-c2cc(N/N=C/c3cccc(F)c3)ncn2)c1
EC50 [3]: > 260 µM (inactive)

Compound: C/C(=N\Nc1nc(N2CCCCC2)nc(N2CCOCC2)n1)c1ccccc1O
EC50 [1]: 0.681 µM (active)
EC50 [2]: 6.37 µM (active)

Compound: CN(C)CCCCNCCCNC(=O)/C=N\O
EC50 [3]: > 260 µM (inactive)

Compound: CC1(C)CC[C@]2(C(=O)O)CC[C@]3(C)C(=CCC4[C@@]5(C)CC[C@H](O)C(C)(C)C5CC[C@]43C)C2C1 (stereo partly specified)
EC50 [4]: 2.6 µM (active)

Compound: Cc1cc(Cn2ccnc2)c(C)c([N+](=O)[O-])c1Cn1ccnc1
EC50 [1]: 2.05 µM (active)
EC50 [2]: > 60 µM (not active)

Compound: COc1ccc2c(c1)c(CC(=O)O)c(C)n2C(=O)c1ccc(Cl)cc1 [INDOMETHACIN]
AC50 (Cytochrome P450 1A2): 10 µM (inconclusive) and 39.8 µM (inconclusive)

Next, values leading:

EC50 [3]: > 260 µM (inactive)
Compound: COc1cccc(NC(=O)CSc2nc(N)cc(N)n2)c1

AC50 (Cytochrome P450 2D6): 2.82 µM (inconclusive)
Compound: CC(C)(C)NC(=O)CSc1nnc(Cc2ccc3c(c2)OCO3)n1C1CCCCC1

AC50 (Cytochrome P450 2D6): 3.98 µM (inconclusive)
Compound: CCCCCCCCCCCCC/C=C\[C@@H](O)[C@H](CO)NC(C)=O

EC50 [3]: > 260 µM (inactive)
Compound: O=C(CCc1nnc(CCCCc2ccccc2)o1)NCCN1CCCCC1=O

AC50 (Cytochrome P450 2D6): 1.58 µM (inconclusive)
Compound: O=C(c1ccccc1)[C@H](Nc1ccc2ccccc2c1)c1ccccc1

AC50 (Cytochrome P450 1A2): 17.8 µM (inconclusive)
Compound: COc1ccc([N+](=O)[O-])cc1N=C(S)NC(NC(=O)Cc1ccc(OC)c(OC)c1)C(Cl)(Cl)Cl (stereo unspecified)

EC50 [3]: > 260 µM (inactive)
Compound: CCC(Sc1nc2cc3c(cc2c(=O)n1Cc1ccco1)OCO3)C(=O)NCCOC (stereo unspecified)

EC50 [3]: > 260 µM (inactive)
Compound: COC(=O)CN1C(c2cccc(Cl)c2)=Nc2ccc(Cl)cc2C1c1ccccc1 (stereo unspecified)

EC50 [3]: > 260 µM (inactive)
Compound: CC(=O)Nc1cccc(-n2nnc(SCC(=O)Nc3ccc(F)c(Cl)c3)n2)c1

AC50 (Cytochrome P450 1A2): 2.51 µM (inconclusive)
Compound: CN(C)c1ncc2nc(-c3ccc(F)cc3)c(=O)n(CCc3ccccc3)c2n1

EC50 [3]: > 260 µM (inactive)
Compound: CCc1cccc(CC)c1NC(=O)COC(=O)CC1c2ccccc2CCN1S(=O)(=O)c1ccc(F)cc1 (stereo unspecified)

AC50 (Cytochrome P450 1A2): 25.1 µM (inconclusive)
AC50 (Cytochrome P450 3A4): 15.8 µM (inconclusive)
Compound: COc1ccc(NC(=O)N2CCC3(CC2)CCN(C(=O)c2ccncc2)CC3)cc1

AC50 (Cytochrome P450 2D6): 25.1 µM (inconclusive)
Compound: CN(C)C(=O)c1ccc(-c2nc(NCc3cccs3)c3ccccc3n2)cc1

EC50 [3]: > 260 µM (inactive)
Compound: COC(=O)C(NNc1ccccc1C)(NC(=O)c1ccc(F)cc1)C(F)(F)F (stereo unspecified)

AC50 (Cytochrome P450 2D6): 25.1 µM (inconclusive)
Compound: COCC(=O)N1CCC2(CC1)CN(c1ccncc1)C2

EC50 [3]: > 260 µM (inactive)
Compound: CC(C)(C)c1cc(NC(=O)CCSc2nnc3ccccn23)cc(C(C)(C)C)c1

AC50 (Cytochrome P450 3A4): 22.4 µM (inconclusive)
Compound: Cc1nn(CC(=O)NCc2ccccc2)c(C)c1[N+](=O)[O-]

EC50 [3]: > 260 µM (inactive)
Compound: C(=N\N1CCN(Cc2cccc3ccccc23)CC1)/c1cccnc1

AC50 (Cytochrome P450 3A4): 31.6 µM (inconclusive)
Compound: CCOc1cc(/C=N/O)cc(Cl)c1OC

AC50 (Cytochrome P450 2D6): 12.6 µM (inconclusive)
Compound: COc1cc(/C=N/Nc2snc(SC)c2C#N)cc(OC)c1OC

AC50 (Cytochrome P450 1A2): 15.8 µM (inconclusive)
AC50 (Cytochrome P450 3A4): 0.794 µM (inconclusive)
Compound: O=C(Nc1ccccc1)/C(=C\c1ccncc1)NC(=O)c1ccccc1
